Test results from patent US20250085272A1, “METHODS AND SYSTEMS FOR MODULATING AND MODELING AGING AND NEURODEGENERATION DISEASES” (MEMORIAL SLOAN-KETTERING CANCER CENTER, priority 2022, published 2025).
“Also recorded” adds a separate entry of the source.

What was measured:
Type in all cases: cell-based, human
APP^swe/swe neurons [1] = assay: Western blotting for pTau(S202/T205) and total Tau, APP^swe/swe neurons
Excerpt: (§1) Western blotting. Samples for western blotting were harvested, pelleted and snap frozen. Cell pellets were resuspended in RIPA buffer supplemented with Halt protease and phosphatase inhibitors (ThermoFisher) followed by centrifugation to clarify the sample. Protein concentration was quantified using the Precision Red Advanced Protein Assay according to manufacturer's instructions and equal amounts of protein were mixed with NuPAGE LDS Sample Buffer and NuPAGE Sample Reducing Agent and heated to 72 degrees for 10 mins. A total of 5-20 μg of protein was separated on NuPAGE Novex 4-12% Bis Tris gels and transferred by wet blotting onto PVDF membranes. Membranes were blocked in 5% milk protein or 5% BSA when probing for the phospho-Tau. Primary antibodies used for this study were: β-ACTIN (Sigma, A2228-100UL), BAG1 (Santa Cruz, sc-33704), BAG3 (Abcam, ab47124), Cas9 (Cell Signaling Technologies; 14697S), GAPDH-HRP (Santa Cruz Biotech, sc-47724 HRP), LMNB1 (Abcam, ab16048), NAE1(Cell Signaling Technologies, 14321S), NEDD8 (Abcam, ab81264), p21 (Cell Signaling Technologies, 2947), TAU (Dako, A0024), p-TAU(S202/T205) (Thermo Fisher; MN1020), UBA3 (Abcam, ab124728). Band intensity was visualized using BioRad ChemiDoc XRS+molecular imager. After imaging the membrane was re-probed with either GAPDH or β-ACTIN antibodies for normalization. Band intensity was quantified using Fiji.

AD neurons = assay: Nuclear roundness and nuclear area of AD neurons
APP^swe/swe neurons [2] = assay: Western blotting for p21, LMNB1, BAG1 and BAG3; settings: 1 μM from DIV50-DIV60
Excerpt: as §1

[3] = tested on: conjugation of NEDD8 to target proteins; assay: Western blotting for conjugation of NEDD8 to target proteins in cortical neurons; settings: 1 μM; postmitotic cortical neurons; 3 hours or 7 days of treatment
Excerpt: as §1

[4] = tested on: neurons with the PSEN^M146V/M146V mutation; assay: Viability of neurons with the PSEN^M146V/M146V mutation; settings: PSEN^M146V/M146V neurons (FIG. 25B)
[5] = tested on: H9-Nurr1^GFP neurons having the LRRK2 G2019S mutation; assay: Viability of neurons with the LRRK2 G2019S mutation; settings: LRRK2 G2019S neurons (FIG. 26C)
APP^swe/swe neurons [6] = assay: Senescence associated β-gal, brightfield images; settings: 1 μM for 10 days
wild-type neurons = assay: Western blotting for pTau(S202/T205) and total Tau, wild-type neurons; settings: wild-type neurons (FIG. 23C)
Excerpt: as §1

[7] = tested on: wild-type or APP^swe/swe neurons; assay: Flow cytometry for aging hallmarks (proteostasis, heterochromatin, senescence)
Experimental: Flow Cytometry. Neuronal cultures were dissociated to single cell suspensions using Accutase (Innovative Cell Technologies) supplemented with Neuron Isolation Enzyme for Pierce™ (Thermo 88285) solution at 1:50. Single cell suspensions were stained with Zombie UV™ Fixable Viability Kit (Biolegend 423107) at 1:2500 in PBS for 15 minutes at room temperature, followed by fixation in 4% Paraformaldehyde for 10 minutes (4° C.). Cells stained with CellEvent Senescence Green (Thermo C10840) were done so at 1:250 in assay buffer for 2 hours at 37° C. For intracellular probes, cells were permeabilized in 0.5% triton-x for 10 minutes (4° C.), and blocked in 5% BSA for 10 minutes (4° C.). Cells were stained with H3k9me3-PE antibody (Cell Signaling Technologies #13969S) diluted 1:200, and Proteostat (Enzo Life Sciences ENZ-51023-KP050) diluted 1:2500, in 5% BSA in PBS for 30 minutes at 4° C. Cells were analyzed on the Cytek Aurora Flow Cytometer. Experiments were repeated with cells from 3 independent differentiations.

[8] = tested on: APP^swe/swe cortical neurons; assay: pATM immunofluorescence (DNA damage); settings: 1 μM for 7 days
Experimental: Immunocytochemistry. Cells were fixed in 4% paraformaldehyde for 10 mins then permeabilized in PBS+0.3% Triton. Cells were blocked in 5% donkey or goat serum for 1 h. Primary antibody incubation was performed overnight. Primary antibodies used in this study were: p-ATM (S1981) (Thermo Fisher; MA1-2020), Cas9 (Cell Signaling Technologies; 14697S), COL1A1 (R&D; AF6220), FOXG1 (Takara; M227), Ki67 (Dako; M7240), MAP2 (Thermo Fisher; PA1-16751), NANOG (Cell Signaling Technologies; 4903S), PAX6 (Biolegend; 901301), TAU (Thermo Fisher; MN1000), p-TAU (S235) (Thermo Fisher; PA5-104785). For all image quantifications images were taken from 3 individual wells and averaged. This was repeated three times with neurons from independent differentiations. Volocity was used to count MAP2+ and Ki67+ cells with pyknotic. DAPI^bright nuclei excluded from the cell count. FIJI was used for TAU and pATM quantifications.

NS(=O)(=O)OC[C@@H]1C[C@@H](n2ccc3c(N[C@H]4CCc5ccccc54)ncnc32)C[C@@H]1O [MLN4924, [(1S,2S,4R)-4-[4-[[(1S)-2,3-Dihydro-1H-inden-1-yl]amino]-7H-pyrrolo[2,3-d]pyrimidin-7-yl]-2-hydroxycyclopentyl]methyl sulfamic acid ester]
changes in phosphorylated Tau (APP^swe/swe neurons [1]; 1 μM from DIV50-DIV60, App^swe/swe versus wild-type neurons (FIGS. 4C-4F)): AD-specific changes in phosphorylated Tau
high molecular weight form of pTAU(AT8) (APP^swe/swe neurons [1]; AD neurons (FIG. 23A-23B)): increase in the high molecular weight form
major form of pTAU(AT8) (APP^swe/swe neurons [1]; AD neurons (FIG. 23A-23B)): decrease in major form of pTAU(AT8)
nuclear roundness (nuclear lamina defects) (AD neurons; AD neurons (FIG. 28A)): decreased nuclear roundness
nuclear area (cellular senescence) (AD neurons; AD neurons (FIG. 28B)): increased nuclear area
cellular senescence (p21, LAMNB1 Western blotting) (APP^swe/swe neurons [2]): increased cellular senescence
proteostasis (BAG1, BAG3 Western blotting) (APP^swe/swe neurons [2]): loss of proteostasis
conjugation of NEDD8 to target proteins [3]: effectively block the conjugation of NEDD8 to target proteins; also recorded: blocks conjugation of NEDD8 to target proteins
viability [4]: reduced viability
viability [5]: reduced viability
β-gal positive neurons (senescence) (APP^swe/swe neurons [6]): induction of showing β-gal positive
change in pTAU(AT8) forms (wild-type neurons): did not show the change
cellular hallmarks of age ([7]; 1 μM for 7 or 10 days, AD-PSC (APP^swe/swe) cortical neurons (FIGS. 3A-3E)): induces cellular hallmarks of age
cellular age (protein aggregation, senescence, histone methylation) ([7]; wild-type or APP^swe/swe neurons, versus DMSO (FIG. 27)): induces cellular age in both wild-type and disease backgrounds
pATM induction (DNA damage) [8]: pATM induction
